SMILES strings stand for the structures. Calls of active or inactive are those of the source. The rule behind the calls is not given here.

The results in this text go back to ChEMBL document CHEMBL4421722, “Inhibitors of protein prenyltransferases” (2013).

The subject of test [1] is HEK293. In words: Inhibition of geranylgeranyltransferase type I in HEK293 cells expressing Myc-HA-tagged Rheb-CVSL assessed as effect on unprenylated Rap1 accumulation at 5 to 10 uM incubated for 48 hrs by SDS-PAGE and immunoblot analysis. It counts as cell-based. To be noted: Homo sapiens.
For test [2], the system named is HEK293. Put plainly: Inhibition of geranylgeranyltransferase type I in HEK293 cells expressing Myc-HA-tagged Rheb-WT assessed as effect on unprenylated Rap1 accumulation at 1.25 to 10 uM incubated for 48 hrs by SDS-PAGE and immunoblot analysis. To be noted: Homo sapiens. The class given is cell-based.
Test [3] has as its system K562. Put plainly: Induction of cell cycle arrest in human K562 cells assessed as accumulation at G1 phase incubated for 48 hrs by flow cytometry. It counts as functional, cell-based.
In test [4] the test system is MIA PaCa-2. Put plainly: Antiproliferative activity against human MIAPaCa2 cells assessed as inhibition of cell proliferation incubated for 72 hrs by CCK8 assay. It counts as functional, cell-based. To be noted: MIA PaCa-2, 72 h.
The subject of test [5] is PANC-1. In words: Antiproliferative activity against human PANC1 cells assessed as inhibition of cell proliferation incubated for 72 hrs by CCK8 assay. The class given is functional, cell-based. To be noted: PANC-1, 72 h. On the technique in general: Tetrazolium dyes change colour on reduction, which living cells bring about.
For test [6], the system named is MCF7. In words: Antiproliferative activity against human MCF7 cells assessed as inhibition of cell proliferation incubated for 6 days by CCK8 assay. The class given is functional, cell-based.
Test [7] deals with BT-474. In words: Antiproliferative activity against human BT474 cells assessed as inhibition of cell proliferation incubated for 72 hrs by CCK8 assay. The class given is functional, cell-based. To be noted: BT-474, 72 h.
Test [8] relates to ASPC1. Put plainly: Antiproliferative activity against human AsPC1 cells assessed as inhibition of cell proliferation incubated for 6 days by CCK8 assay. The class given is functional, cell-based. To be noted: ASPC1, 144 h.
The test system of test [9] is HPAC. In words: Antiproliferative activity against human HPAC cells assessed as inhibition of cell proliferation incubated for 72 hrs by CCK8 assay. The class given is functional, cell-based.
In test [10] the test system is K562. Put plainly: Induction of cell cycle arrest in human K562 cells assessed as reduction in accumulation at S phase incubated for 48 hrs by flow cytometry. The class given is functional, cell-based.
Test [11] in a line: (§1) Competitive inhibition of rat recombinant geranylgeranyltransferase type I expressed in Escherichia coli assessed as reduction in geranylgeranylation of RhoA incubated for 30 mins in presence of varying level of [3H]GGPP and fixed RhoA levels by scintillation counting assay relative to control.
Test [12] in a line: Antiproliferative activity against human SEMK2 cells assessed as inhibition of cell proliferation incubated for 6 days by CCK8 assay. It counts as functional, cell-based. To be noted: SEMK2, 144 h.
The test system of test [13] is Jurkat. Put plainly: Antiproliferative activity against human Jurkat cells assessed as inhibition of cell proliferation incubated for 72 hrs by CCK8 assay. The class given is functional, cell-based.
Test [14] concerns Capan-2. In words: Antiproliferative activity against human Capan2 cells assessed as inhibition of cell proliferation incubated for 72 hrs by CCK8 assay. To be noted: Capan-2, 72 h. It counts as functional, cell-based.
In test [15] the test system is CFPAC-1. Put plainly: Antiproliferative activity against human CFPAC-1 cells assessed as inhibition of cell proliferation incubated for 72 hrs by CCK8 assay. It counts as functional, cell-based. To be noted: CFPAC-1, 72 h.
Test [16] has as its target Protein farnesyltransferase (Rattus norvegicus) (UniProt Q04631+Q02293). Put plainly: Inhibition of rat recombinant FTase alpha/beta expressed in Escherichia coli at 50000 nM using K-Ras4B as a substrate as and [3H]farnesyl pyrophosphate incubated for 30 mins by scintillation counting assay.
Test [17] deals with K562. In words: Induction of cell cycle arrest in human K562 cells assessed as accumulation at G1 phase up to […] incubated for 48 hrs by flow cytometry. It counts as functional, cell-based. (In flow cytometry, cells or beads pass a laser one at a time.)
Test [18] is filed under the species Rattus norvegicus. In words: Uncompetitive inhibition of rat recombinant geranylgeranyltransferase type I expressed in Escherichia coli assessed as reduction in geranylgeranylation of RhoA incubated for 30 mins in presence of varying level of [3H]GGPP and fixed RhoA levels by scintillation counting assay by Michaelis-Menten plot analysis.
The species named for test [19] is Rattus norvegicus. Put plainly: Competitive inhibition of rat recombinant geranylgeranyltransferase type I expressed in Escherichia coli assessed as reduction in geranylgeranylation of RhoA incubated for 30 mins in presence of fixed level of [3H]GGPP and varying RhoA levels by scintillation counting assay relative to control.
The species entered for test [20] is Rattus norvegicus. The test is described as §1.
Test [21] is filed under the species Rattus norvegicus. In words: Inhibition of rat recombinant geranylgeranyltransferase type I expressed in Escherichia coli assessed as residual enzyme activity for geranylgeranylation of RhoA at 50 uM incubated for 30 mins in presence of [3H]GGPP by scintillation counting assay relative to control.
The target in test [22] is Geranylgeranyl transferase type-2 (Homo sapiens) (UniProt P53611+Q92696). In words: Inhibition of RabGGTase (unknown origin) at 50000 nM using YPTI as substrate protein and [3H]geranylgeranyl pyrophosphate incubated for 20 mins by scintillation counting assay. It counts as protein-complex assay.
The species entered for test [23] is Rattus norvegicus. In words: Inhibition of rat recombinant geranylgeranyltransferase type I expressed in Escherichia coli assessed as residual enzyme activity for geranylgeranylation of K-Ras4B at 50 uM incubated for 30 mins in presence of [3H]GGPP by scintillation counting assay relative to control.
Test [24] has as its system HEK293. In words: Inhibition of geranylgeranyltransferase type I in HEK293 cells expressing Myc-HA-tagged Rheb-WT assessed as effect on unprenylated Rap1 accumulation at 3.1 to 25 uM incubated for 48 hrs by SDS-PAGE and immunoblot analysis. It counts as cell-based. To be noted: Homo sapiens.
Test [25] concerns K562. Put plainly: Antiproliferative activity against human K562 cells assessed as inhibition of cell proliferation incubated for 72 hrs by CCK8 assay. It counts as functional, cell-based.
Test [26] relates to HEK293. Put plainly: Inhibition of geranylgeranyltransferase type I in HEK293 cells expressing Myc-HA-tagged Rheb-CVSL assessed as effect on unprenylated Rap1 accumulation at 12.5 to 50 uM incubated for 48 hrs by SDS-PAGE and immunoblot analysis. It counts as cell-based. To be noted: Homo sapiens. (In general: A western blot detects proteins with antibodies after separation by electrophoresis.)

Test [27] can be described thus: Inhibition of rat recombinant geranylgeranyltransferase type I expressed in Escherichia coli assessed as reduction in geranylgeranylation of RhoA incubated for 30 mins in presence of [3H]GGPP by scintillation counting assay relative to control.

For the compound `COC(=O)[C@H](Cc1ccccc1)NCC(=O)OCC1=C[C@@H](C(C)(C)C)N(S(=O)(=O)c2ccccc2C)[C@H]1c1ccc(Cl)cc1`, the inhibition entry in test [1] and in test [2] was “Active” throughout.

In general, IC50 refers to the point on the concentration scale where inhibition reaches its midpoint. Take `Cc1ccccc1S(=O)(=O)N1[C@@H](c2ccc(Cl)cc2)C(COCC(=O)N[C@@H](Cc2ccccc2)C(N)=O)=C[C@H]1C(C)(C)C`: the Activity entry in test [3] and in [10] was “Dose-dependent effect” each time. Besides, the IC50 in [4] was 13.9 µM; in test [5], 12.6 µM; in [6] (MCF7, 144 h) it was 6.4 µM; in [7], 11.6 µM; in test [8], over 20 µM; in test [9], 11.7 µM. The IC50 in [11] was 12.5 µM; in [12], 14.1 µM; in test [13], 1.3 µM; in test [14], 11.1 µM; in test [15], 8.1 µM. The inhibition result in test [6] was “Dose-dependent effect”.

Broadly, the GI50 is the concentration giving 50% growth inhibition. In the case of `Cc1ccccc1S(=O)(=O)N1[C@@H](c2cccc(Cl)c2)C(C(=O)O)=CC[C@H]1c1ccc(Cl)cc1`, the inhibition result in test [16], in test [20] and in test [22] was “inactive” in each case. In addition, in [17], the result was Active. The inhibition entry in [18], in test [19], in test [24], in test [25] and in test [26] was “Active” each time. Moreover, the Activity was 7.5 to 24.8% in test [21] and 14.7 to 41.7% in test [23]. The GI50 in test [13] amounted to 20 µM. In test [27], the IC50 was in the range of 0.31 to 0.313 µM.
